{"source": "ChEMBL document CHEMBL1157539", "about": "“Thousands of chemical starting points for antimalarial lead identification” (Nature, 2010)"}
{"tested_on": "Plasmodium falciparum", "test": "GSK_TCMDC: Inhibition of Plasmodium falciparum 3D7 in whole erythrocytes, using parasite LDH activity as an index of growth.", "format": "functional, organism-based", "settings": "Plasmodium falciparum, 3D7", "units": {"XC50": "nM"}}
{"smiles": "Cc1cc(N/N=C/c2cccc([N+](=O)[O-])c2)c2ccc(F)cc2n1", "XC50": 690}
{"smiles": "Cc1nc(O)c2c(ccc3ccc(CN(C)c4ccc(C(=O)N[C@@H](CCC(=O)O)C(=O)O)cc4)cc32)n1", "XC50": 879}
{"smiles": "COCCCC1C(=O)OC2CCCC21", "note": "(stereo unspecified)", "XC50": 699}
{"smiles": "O=C(O)c1ccc(-c2c[nH]c3ncc(-c4ccc(Cl)cc4)cc23)cc1", "XC50": 726}
{"smiles": "Cc1ccc(Nc2nccc(N(C)c3ccc4c(c3)nc(NC(=O)Cc3ccc(Cl)c(Cl)c3)n4C)n2)cc1S(N)(=O)=O", "XC50": 1110}
{"smiles": "O=c1cc(NC[C@H]2CCC[C@@H]2NC2CCCc3c2[nH]c2ccccc32)[nH]c2ccccc12", "note": "(stereo partly specified)", "XC50": 786}
{"smiles": "Cc1cc(-c2ccc(O)c(CNC3CCCCC3)c2)cnc1N", "XC50": 203}
{"smiles": "CC(C)(C)c1ccc(OCC(=O)NC2CCN(c3ccnc4cc(Cl)ccc34)C2)cc1", "note": "(stereo unspecified)", "XC50": 135}
{"smiles": "CC1(C)N=C(NC(=O)c2cc([N+](=O)[O-])cc([N+](=O)[O-])c2)N=C(N)N1OCc1cccc2ccccc12", "XC50": 6.84}
{"smiles": "COc1ccc(-c2nc3cccnc3n2CC(=O)Nc2c(C)cc(C)cc2C)c(OC)c1", "XC50": 927}
{"smiles": "COc1ccccc1C1CC(c2ccc(Br)cc2)=NN1C(=O)c1ccccc1", "note": "(stereo unspecified)", "XC50": 1110}
{"smiles": "COc1ccc2c(=NN=Cc3ccccc3)cc(C)[nH]c2c1", "XC50": 846}
{"smiles": "COc1cc(C)nc2ccc(NC(=O)c3cc(C(F)(F)F)cc(C(F)(F)F)c3)cc12", "XC50": 912}
{"smiles": "Cc1cc(C(=O)Nc2ccc3c(c2)CCN3C2CCN(Cc3cccc(F)c3F)C2)no1", "note": "(stereo unspecified)", "XC50": 583}
{"smiles": "Cn1nc(-c2ccccc2F)c2cc(C(=O)NC3CCN(Cc4ccccc4)CC3)sc21", "XC50": 789}
{"smiles": "O=S(=O)(Nc1cccc(CCN2CCCCC2CCN2CCCC2)c1)c1cccc2ccccc12", "note": "(stereo unspecified)", "XC50": 819}
{"smiles": "CC(=O)Nc1cccc(C(=O)Nc2cccc(-c3ccc(-c4nc5cc(C(F)(F)F)ccc5[nH]4)s3)c2)c1", "XC50": 652}
{"smiles": "CC1(C)CCC(=Cc2ccc(Cl)cc2)CC1(O)Cn1ccnc1", "note": "(stereo unspecified)", "XC50": 743}
{"smiles": "Cc1cccc2nc(-c3cccc(-c4ccc(CNCc5ccccc5)cc4)c3)[nH]c12", "XC50": 148}
{"smiles": "COc1ccc2[nH]ccc(=NN=Cc3ccncc3)c2c1", "XC50": 584}
{"smiles": "CCCCCCCCCC(=O)NCC1CC(Br)=NO1", "note": "(stereo unspecified)", "XC50": 1050}
{"smiles": "COc1cc2ncnc(Nc3ccc(Br)c(Cl)c3)c2cc1OC", "XC50": 718}
{"smiles": "C=CCOc1ccc(C2C(C(=O)OC)=C(C)NC3=C2C(=O)c2ccccc23)cc1OC", "note": "(stereo unspecified)", "XC50": 877}
{"smiles": "O=C(Nc1ccc(-c2cccc(-c3nc4cc(C(F)(F)F)ccc4[nH]3)c2)cc1)Nc1ccc(Cl)c(Cl)c1", "XC50": 746}
{"smiles": "CN(Cc1cccc(O)c1)C1CCN(c2cc(NC(=O)c3cccc(F)c3)ccn2)CC1", "XC50": 847}
{"smiles": "CC1(C)NC(N)=NC(=N)N1OCc1cccc(Cl)c1Cl", "XC50": 3.2}
{"smiles": "COc1ccc(NC(=O)Nc2ccc(C)c(-c3ccc(C(=O)Nc4ccncc4)cc3)c2)cc1", "XC50": 572}
{"smiles": "Cc1cccc2nc(-c3cccc(-c4cccc(NC(=O)Nc5ccc(F)c(F)c5F)c4)c3)[nH]c12", "XC50": 108}
{"smiles": "COc1ccc(NC(=O)Nc2ccc(-c3ccc(-c4nc5ccccc5[nH]4)cc3)cc2)cc1", "XC50": 509}
{"smiles": "COc1ccc(Cl)cc1NC(=O)C(C)Nc1ccc(-c2ccccc2)cc1", "note": "(stereo unspecified)", "XC50": 556}
{"smiles": "CN(C)CCCNc1ncnc2c1[nH]c1ccc(Br)cc12", "XC50": 319}
{"smiles": "Cc1cc(NC(=O)NCCN2CCC(NS(=O)(=O)c3ccc(Br)cc3)C2)c2ccccc2n1", "note": "(stereo unspecified)", "XC50": 602}
{"smiles": "COc1ccc(CNCc2ccccc2)cc1-c1ccc(OC)c(S(=O)(=O)NCCN2CCCC2)c1", "XC50": 827}
{"smiles": "CCC(C)NS(=O)(=O)c1ccc2nc(Nc3ccc(C)c(Cl)c3)n([C@H](C)C(C)(C)C)c2c1", "note": "(stereo partly specified)", "XC50": 381}
{"smiles": "O=C(/C=C/c1ccc(Cl)c(Cl)c1)N1CCC(CN2CCC(Cc3nc4ccccc4[nH]3)CC2)CC1", "XC50": 254}
{"smiles": "CCc1c(CCNCCCCCCNC(C)(C)Cc2ccc3c(c2CC)OCO3)ccc(OC)c1OC", "XC50": 934}
{"smiles": "Cc1ccc(NCC(=O)Nc2ccc(F)c(Cl)c2)cc1S(=O)(=O)N1CCOCC1", "XC50": 57.6}
{"smiles": "CN(Cc1cccc(F)c1)C1CCN(c2cc(NC(=O)c3cccc(F)c3)ccn2)CC1", "XC50": 1160}
{"smiles": "COc1ccc(NC(=O)c2ccc(-c3nc(-c4ccc(Cl)cc4)cs3)cc2)cc1N1CCN(C)CC1", "XC50": 921}
{"smiles": "CCc1ccc(CN2CCC(NC(=O)c3ccc(-c4ccc(N(C)C)cc4)s3)CC2)cc1", "XC50": 1210}
{"smiles": "CC(NC(C)c1cccc(Cl)c1)C(=O)Nc1cc(C(F)(F)F)ccc1N1CCOCC1", "note": "(stereo unspecified)", "XC50": 1090}
{"smiles": "CN(C)c1cccc2c(S(=O)(=O)Nc3cccc(CCN4CCC(N5CCCCC5)CC4)c3)cccc12", "XC50": 979}
{"smiles": "COc1ccc2c(CNCCCCCCNCc3c(OC)ccc4cc(OC)ccc34)c(OC)ccc2c1", "XC50": 560}
{"smiles": "CC[C@H](N/C(=N\\c1ccc(-c2ccccc2)cc1)Nc1ccc(C#N)cc1O)c1ccccc1", "XC50": 759}
{"smiles": "O=C(/C=C/c1ccc(Cl)c(Cl)c1)NCCCCCN1CCC(NC(=S)Nc2ccc(Cl)c(Cl)c2)CC1", "XC50": 528}
{"smiles": "COc1cc(OC)c(OC)cc1C=NN=c1cc(C)[nH]c2ccccc12", "XC50": 299}
{"smiles": "COc1cc2c(cc1COc1ccccc1)CCN1Cc3cc(OC)c(OC)cc3CC21", "note": "(stereo unspecified)", "XC50": 150}
{"smiles": "Cc1[nH]c(C)c(-c2ccc(OCc3ccccc3C(F)(F)F)nc2)c(=O)c1Br", "XC50": 16.4}
{"smiles": "N#Cc1ccc(C(=O)Nc2cc(-c3cccc(O)c3)cc3[nH]ncc23)cc1", "XC50": 1370}
{"smiles": "COc1ccc2c(c1)OC(C)(C)CC2=NOS(=O)(=O)c1ccc(C)cc1", "XC50": 208}
{"smiles": "CCNCc1ccc(-c2cccc(-c3nc4ccccc4[nH]3)c2)cc1", "XC50": 550}
{"smiles": "CCCCCCCC1=NN2C(=N)C(=Cc3cc(Br)c(OCc4ccc(F)cc4)c(OCC)c3)C(=O)N=C2S1", "XC50": 1050}
{"smiles": "O=C(NCCCCN1CCN(c2cccc3ccccc23)CC1)c1ccc(NC(=O)c2ccc(Cl)cc2)cc1", "XC50": 358}
{"smiles": "Cc1cc(N)nc2ccc(CNCCc3ccccc3Br)cc12", "XC50": 120}
{"smiles": "Oc1cc(-c2cccc(C(F)(F)F)c2)nc(Nc2ccc(Cl)c(Cl)c2)n1", "XC50": 759}
{"smiles": "CS(=O)(=O)Nc1ccc(-c2cnc3[nH]cc(-c4ccc(C(=O)O)cc4)c3c2)cc1", "XC50": 800}
{"smiles": "CCN(CCO)Cc1ccc(-c2ccc(NS(=O)(=O)c3cccc4cccnc34)cc2)cc1", "XC50": 985}
{"smiles": "COc1c(C=NNc2nc(=Nc3ccccc3)[nH]c(=Nc3ccccc3)[nH]2)ccc(Br)c1O", "XC50": 720}
{"smiles": "CC(C)(CNCc1cccc(Oc2cccc(C(F)(F)F)c2)c1)c1nc(-c2ccnc(N)n2)c(-c2ccc(Cl)c(O)c2)[nH]1", "XC50": 193}
{"smiles": "CSCCCN1CCC(O)(c2ccc3oc(C(=O)Nc4ccc5sc(C)nc5c4)cc3c2)CC1", "XC50": 1070}
{"smiles": "O=C(Nc1cccc(CN2CCCN(Cc3ccsc3)CC2)c1)c1cc2ccccc2s1", "XC50": 758}
{"smiles": "O=C(N[C@H]1CCN(Cc2ccc(OCCN3CCNCC3)c3ccccc23)C1)c1ccc(Cl)c(Cl)c1", "XC50": 748}
{"smiles": "COc1ccccc1NC(=O)OC(COc1ccc(N)cc1)CN1CC=C(c2ccccc2)CC1", "note": "(stereo unspecified)", "XC50": 1040}
{"smiles": "COc1cccc(NC(=O)c2cc([N+](=O)[O-])ccc2NC(=O)CN2CCc3ccccc3C2)c1", "XC50": 589}
{"smiles": "Cc1cc(N2CCCCC2)nc2ccc(NC(=O)c3cccc([N+](=O)[O-])c3)cc12", "XC50": 378}
{"smiles": "CNc1ccc(CNCc2ccc(-c3ccc(-c4nc5cc(C(F)(F)F)ccc5[nH]4)s3)cc2)cc1", "XC50": 177}
{"smiles": "O=S(=O)(c1c(Cl)cccc1Cl)N1CCCCC(c2ccc(C(F)(F)F)cc2)=N1", "XC50": 126}
{"smiles": "CN1CC[C@@H](Oc2cc(Nc3nc(-c4ccc(C#N)cc4)cs3)ccc2Cl)C1", "XC50": 821}
{"smiles": "COc1ccccc1NC(=O)Nc1cccc(-c2cccc(-c3nc4cc(C(F)(F)F)ccc4[nH]3)c2)c1", "XC50": 120}
{"smiles": "C=CCN(C(=O)c1ccc(Cl)c([N+](=O)[O-])c1)c1nc(-c2ccccc2)cs1", "XC50": 398}
{"smiles": "CN(C)Cc1cccc(-c2cnc(N)c(-c3nc4cc(S(C)(=O)=O)ccc4[nH]3)c2)c1", "XC50": 887}
{"smiles": "CN(C(=O)Cc1ccc(Cl)c(Cl)c1)C1CCN(CCCCCNC(=O)/C=C/c2ccc(Cl)c(Cl)c2)CC1", "XC50": 739}
{"smiles": "COc1cccc(N(CCCN2C(=O)c3cccc4cccc(c34)C2=O)C(=O)c2ccccc2C)c1", "XC50": 795}
{"smiles": "CC[C@H]1CN2CC[C@@H]1C[C@H]2[C@H](O)c1cc(N2CCC(C(N)=O)CC2)nc2ccc(OC)cc12", "XC50": 773}
{"smiles": "COc1cc(Cc2cnc(N)nc2N)cc(OCCCN2C(=O)c3ccccc3C2=O)c1OC", "XC50": 985}
{"smiles": "O=C(CCC1CCCC1)N(Cc1ccc(-c2ccc(CNCCc3ccccn3)cc2)cc1)CC1CCCCN1", "note": "(stereo unspecified)", "XC50": 1150}
{"smiles": "CC1CN(Cc2cccc(F)c2)CCN1c1ccc(NC(=O)c2cccs2)cc1", "note": "(stereo unspecified)", "XC50": 448}
{"smiles": "CC(=O)Nc1ccc([N+](=O)[O-])c2c(Br)cccc12", "XC50": 636}
{"smiles": "O=C(NCc1ccco1)c1ccc(S(=O)(=O)c2ccc(Cl)cc2)cc1", "XC50": 448}
{"smiles": "O=C(Nc1ccc(Oc2ccccc2)cc1)N[C@@H](Cc1ccc(O)cc1)C(=O)NC1CCN(Cc2ccc(O)c([N+](=O)[O-])c2)C1", "note": "(stereo partly specified)", "XC50": 1510}
{"smiles": "CCC[C@@H]([C@@H](CC1CCCCC1)C(=O)N[C@H](C(=O)Nc1nccc(N)n1)C(C)(C)C)N(O)C=O", "XC50": 528}
{"smiles": "c1cncc(-c2cccc(CNc3nccc(Nc4ccc(OCCN5CCOCC5)cc4)n3)c2)c1", "XC50": 1060}
{"smiles": "Cc1sc(C)c(CNCCCNc2cc(=O)c3ccccc3[nH]2)c1Br", "XC50": 878}
{"smiles": "COc1ccc2ccccc2c1C=NN=c1cc[nH]c2ccc(F)cc12", "XC50": 1110}
{"smiles": "O=C(C=Cc1ccc(Cl)c(Cl)c1)NCCCCCN1CCCC(CCCNS(=O)(=O)c2cccc(C(F)(F)F)c2)C1", "note": "(stereo unspecified)", "XC50": 962}
{"smiles": "COc1cc(NC(=O)C(c2ccc(Cl)cc2)C(C)C)cc(OC)c1", "note": "(stereo unspecified)", "XC50": 723}
{"smiles": "COc1ccccc1C(C)NCC(=O)Nc1cc(C(F)(F)F)ccc1Cl", "note": "(stereo unspecified)", "XC50": 778}
{"smiles": "CC[C@H]1CN2CC[C@H]1C[C@H]2[C@H](O)c1cc(N2CCC3CCCCC3C2)nc2ccc(OC)cc12", "note": "(stereo partly specified)", "XC50": 170}
{"smiles": "CCCCCCn1c(Sc2ccc(C#N)c([N+](=O)[O-])c2)nnc1-c1cc(OC)cc(OC)c1", "XC50": 771}
{"smiles": "Cc1ccc(-c2nnc(-c3ccc(C(=O)NC4CCN(Cc5ccc(C#N)cc5)CC4)cc3)o2)cc1Br", "XC50": 852}
{"smiles": "Cn1cnc2nc(NCCc3ccccc3)nc(NCc3cccc4ccccc34)c21", "XC50": 327}
{"smiles": "Cc1ccc(CNC(=O)c2cc3c(=O)n4cccc(C)c4nc3n(CCN3CCOCC3)c2=N)cc1", "XC50": 854}
{"smiles": "CN1CCN(Cc2ccc(-c3cc4c(Nc5ccc(OCc6cccc(F)c6)c(Cl)c5)ncnc4s3)[nH]2)CC1", "XC50": 766}
{"smiles": "CNC(=O)NC1=NC(C)(C)N(OCc2ccc(Cl)c(Cl)c2)C(NC(=O)NC)=N1", "XC50": 601}
{"smiles": "CN1CCC(c2ccc(NC(=O)c3ccc(-c4cccc(C(F)(F)F)c4)o3)cc2)CC1", "XC50": 1130}
{"smiles": "Cc1sc(NC(=O)Cc2cccc(C(F)(F)F)c2)nc1-c1cccc(Cl)c1", "XC50": 470}
